Structures are written as SMILES.

Data set [1] in a line: Hydrophobicity / aqueous solubility of the conjugates (descriptive). The data set is classed as physicochemical.
In data set [2] the target is T1, sex hormone binding globulin (SHBG) (Homo sapiens, UniProt P04278).
T1 sequence (P04278 30-402): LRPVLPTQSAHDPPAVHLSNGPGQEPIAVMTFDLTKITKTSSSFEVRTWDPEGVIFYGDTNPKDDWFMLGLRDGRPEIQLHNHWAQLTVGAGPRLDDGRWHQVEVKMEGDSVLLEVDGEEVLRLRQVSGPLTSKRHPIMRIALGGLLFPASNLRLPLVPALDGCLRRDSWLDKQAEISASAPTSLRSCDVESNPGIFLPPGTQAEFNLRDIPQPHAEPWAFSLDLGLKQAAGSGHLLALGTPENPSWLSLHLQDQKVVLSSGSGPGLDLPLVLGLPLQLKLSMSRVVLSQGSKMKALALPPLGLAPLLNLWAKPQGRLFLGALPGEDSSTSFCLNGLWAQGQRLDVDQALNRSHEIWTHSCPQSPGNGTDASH
As to the kind of experiment: Binding of 5′-MP-^125IUdR-3′-DHT to sex hormone binding globulin (charcoal-dextran, size-exclusion HPLC). Conditions: FIG. 3. Here is the method: The tubes were then vortexed for about 30 seconds and incubated for 10 minutes in a water bath at 37° C. The samples were then incubated at 0–4° C. for 3 hours. 0.1 mL aliquots were removed from the samples and counted in a gamma counter. To each tube, 0.4 mL of ice-cold charcoal-dextran solution was added and the tubes were incubated on ice for 15 minutes. The samples were then centrifuged at 4° C. for 20 minutes at 1,000 rpm. 0.5 ml aliquots were taken for gamma-counting and the residue was also counted. Selected samples were analyzed by size-exclusion HPLC (tandem TSK2000 and TSK3000 size exclusion columns (TosoHaas; Montgomeryville, Pa.) with a guard column using PBS, pH7.2 as the eluant).
Background: Size exclusion chromatography separates by hydrodynamic size, large species first.

Data set [3] is described as follows: Biodistribution in athymic mice bearing AR-expressing OVCAR-3 tumors. In kind it is in vivo. The text has this: (§1) With regard to ^125IUdR-3′-DHT, the biodistribution of the reagent (0.001–0.010 mCi/mouse; […]) in athymic mice bearing AR-expressing OVCAR-3 tumors is seen in Table 3. Additionally, the efficacy of the reagent against the intraperitoneal OVCAR-3 tumors after 6 fractionated doses (0.1 mCi/dose/mouse; […]) is seen in Table 4.

For data set [4], the system named is intraperitoneal OVCAR-3 tumors. As to the kind of experiment: Efficacy against intraperitoneal OVCAR-3 tumors after 6 fractionated doses. The data set is classed as in vivo, athymic mice. Conditions: 0.1 mCi/dose/mouse.
Source text: as §1

The test system of data set [5] is OVCAR-3 cells. As to the kind of experiment: Binding of ^125IUdR-DHT to OVCAR-3 cells in vitro (Scatchard plot, with/without excess cold DHT). How it is done: To generate a Scatchard plot for the binding of ^125IUdR-DHT to OVCAR-3 cells, OVCAR-3 cells were thawed from a stock or freshly harvested by a lavage of the peritoneal cavity of athymic mice bearing intraperitoneal ascites OVCAR-3 tumors. The cells were twice washed with full media (RPMI 1640 medium with 2 mM L-glutamine adjusted to contain 1.5 g/L sodium bicarbonate, 4.5 g/L glucose, 10 mM HEPES, and 1.0 mM sodium pyruvate and supplemented with 0.01 mg/ml bovine insulin, 80%; fetal bovine serum, 20%). The cells were spun at 450 rpm for 10 minutes to collect a cell pellet and were then resuspended in full media to achieve approximately 5×10^6 cells/mL. The cells were counted and their viability was determined by Trypan Blue staining. “Cold” dihydrotestosterone (DHT) was dissolved in 95% ethanol to create a stock solution of 5 μg/mL. Similarly, 95% ethanol was added to ^125IUdR-DHT to produce 250,000 cpm/100 μL.
The tubes were capped and gently vortexed. The “total applied” counts were then determined in a gamma counter. […] A known volume of the supernatant from the centrifugation was transfered to new plastic tubes and counted in a gamma counter to determine the “free” counts. The cell pellet with the remainder of the supernatant was then counted in the gamma counter. “Bound” counts were then determined by subtracting counts associated with the supernatant from the remaining counts.

Data set [6] relates to OVCAR-3 cells. As to the kind of experiment: Stability of ^125IUdR-DHT in growth medium in the presence or absence of OVCAR-3 cells (TLC). In kind it is in vitro ADME. Here is the method:
OVCAR-3 cells in full growth medium (RPMI 1640 medium with 2 mM L-glutamine adjusted to contain 1.5 g/L sodium bicarbonate, 4.5 g/L glucose, 10 mM HEPES, and 1.0 mM sodium pyruvate and supplemented with 0.01 mg/ml bovine insulin, 80%; fetal bovine serum, 20%) at 1×10^6 cells per flask were plated onto three Petri dishes and allowed to attach for 24 hours. As a control, one dish without cells was subjected to the same treatments. After 24 hours, the cells were trypsinized from one dish to determine cell number and viability. The media was then aspirated from the remaining dishes, including the control, and replaced with 1 mL of fresh media. 0.1 mCi of ^125IUdR-DHT in 0.10 mL of ethanol was added to all of the dishes. The dishes were incubated at 37° C. At 0, 5, 15, 30, 60, 120, 180, and 240 minutes, 10 μL of media was removed from each of the dishes of which 2 μL was added to a silica gel TLC plate. Additionally, 2 μL was added to glass gamma counter tubes as standards. The TLC plates were run with a 3:1 mixture of ethyl acetate and hexane (v/v). When the solvent front approached the end of the plate, the plate was removed from the solvent, dried, and cut into strips. The standards and the strips were then counted. The percent recovered ^125IUdR-DHT was calculated as a ratio of the intact ^125IUdR-DHT at a given timepoint divided by the intact ^125IUdR-DHT at the 0 minute timepoint (see FIG. 2A). Similar calculations were used to determine the kinetics of the appearance of ^125IUdR in the medium, which was determined to occur at a rate of 8.5%/hour (FIG. 2B). This rate is in comparison to the disappearance of ^125IUdR-DHT from the media at a rate of 16%/hour. […] The inclusion of a negatively-charged monophosphate assists in the retention of these compounds in the cell.
This allows at least a partial retention of the negatively charged succinate inside the cell where the next hydrolytic step frees ^125IUdR to be taken up by DNA.

Setting [7] is: OVCAR-3 cells, full growth medium, 37° C.

In the case of `CC12CCC(=O)CC1CCC1C2CCC2(C)C(OP(=O)(OCC3OC(n4cc([125I])c(=O)[nH]c4=O)CC3O)OC3CCC4C5CCC6CC(=O)CCC6(C)C5CCC34C)CCC12` (stereo not shown) [Conjugate 5, 5′-[^125I]iodo-2′-deoxy-5′-monphosphate-O-(bis-dihydrotestosterone)], in data set [1], the “hydrophilicity / hydrophobicity relative to the other conjugates” value is given as “most hydrophobic”.

As for `CC12CCC(=O)CC1CCC1C2CCC2(C)C(OC(=O)CCC(=O)OC3CC(n4cc([125I])c(=O)[nH]c4=O)OC3COP(=O)(O)O)CCC12` (stereo not shown) [5′-MP-^125IUdR-3′-DHT, 5′-monophosphate-^125IUdR-3′-succinyl-DHT], in data set [2], the “binding to SHBG” value is given as “specifically bound” and the “competition of SHBG binding by “cold” DHT” value is on record as “competed away”.

`CC12CCC(=O)CC1CCC1C2CCC2(C)C(OC(=O)CCC(=O)OC3CC(n4cc([125I])c(=O)[nH]c4=O)OC3CO)CCC12` (stereo not shown) [^125IUdR-DHT, ^125IUdR-3′-succinyl-DHT]: the “Percent injected dose per gram tissue” value is reported as 29.61 Percent injected dose per gram tissue in data set [3] (Blood, 1.5 h, average of n = 10); 0.25 Percent injected dose per gram tissue in data set [3] (Blood, 24 h, average of n = 10); 0.30 Percent injected dose per gram tissue in data set [3] (Blood, 48 h, average of n = 10); 0.17 Percent injected dose per gram tissue in data set [3] (Blood, 72 h, average of n = 10); 1.91 Percent injected dose per gram tissue in data set [3] (Brain, 1.5 h); 0.03 Percent injected dose per gram tissue in data set [3] (Brain, 24 h). Further, the “Percent injected dose per gram tissue” value in data set [3] (Brain, 48 h) is 0.05 Percent injected dose per gram tissue; in data set [3] (Brain, 72 h), 0.04 Percent injected dose per gram tissue; in data set [3] (Kidney, 1.5 h), 17.67 Percent injected dose per gram tissue; in data set [3] (Kidney, 24 h), 0.20 Percent injected dose per gram tissue; in data set [3] (Kidney, 48 h), 0.18 Percent injected dose per gram tissue; in data set [3] (Kidney, 72 h) it was 0.22 Percent injected dose per gram tissue. Besides, the “Percent injected dose per gram tissue” value in data set [3] (Liver, 1.5 h) is reported as 11.07 Percent injected dose per gram tissue; in data set [3] (Liver, 24 h) it was 0.24 Percent injected dose per gram tissue; in data set [3] (Liver, 48 h), 0.32 Percent injected dose per gram tissue; in data set [3] (Liver, 72 h), 0.33 Percent injected dose per gram tissue; in data set [3] (OVCAR-3 tumor (IP), 1.5 h) it was 20.70 Percent injected dose per gram tissue; in data set [3] (OVCAR-3 tumor (IP), 24 h), 5.66 Percent injected dose per gram tissue. Besides, the “Percent injected dose per gram tissue” value in data set [3] (OVCAR-3 tumor (IP), 48 h) is on record as 5.41 Percent injected dose per gram tissue; in data set [3] (OVCAR-3 tumor (IP), 72 h), 3.54 Percent injected dose per gram tissue; in data set [3] (Spleen, 1.5 h) it was 15.60 Percent injected dose per gram tissue; in data set [3] (Spleen, 24 h), 0.59 Percent injected dose per gram tissue; in data set [3] (Spleen, 48 h), 0.44 Percent injected dose per gram tissue; in data set [3] (Spleen, 72 h) it was 0.59 Percent injected dose per gram tissue. Besides, the “Percent injected dose per gram tissue” value in data set [3] (Uterus, 1.5 h) was 11.43 Percent injected dose per gram tissue; in data set [3] (Uterus, 24 h), 0.54 Percent injected dose per gram tissue; in data set [3] (Uterus, 48 h), 0.66 Percent injected dose per gram tissue; in data set [3] (Uterus, 72 h) it was 0.97 Percent injected dose per gram tissue; in data set [3] (solid OVCAR-3 (approximately 2 mice per group), 1.5 h), 12.94 Percent injected dose per gram tissue; in data set [3] (solid OVCAR-3 (approximately 2 mice per group), 24 h), 0.67 Percent injected dose per gram tissue. In addition, the “Percent injected dose per gram tissue” value in data set [3] (solid OVCAR-3 (approximately 2 mice per group), 48 h) was 0.28 Percent injected dose per gram tissue; in data set [3] (solid OVCAR-3 (approximately 2 mice per group), 72 h), 0.24 Percent injected dose per gram tissue. Further, the median tumor size in data set [4] amounted to 0.244 g. Also, the “range (tumor size)” value in data set [4] is 0.012 to 0.781 g. The compound further yielded a mean tumor burden in data set [4] (average (n = 10) and standard deviation) of 0.304 ± 0.320 g. In the data set with OVCAR-3 cells [5] (5 × 10^6 cells, 0–4° C., 14–16 hours), the “binding to OVCAR-3 cells (Scatchard)” value is listed as “single type of binding sites with a high affinity”. Moreover, in the data set on OVCAR-3 cells [5] (excess “cold” DHT), the “competition by excess DHT for binding” value is recorded as “due to the DHT portion of the drug”. Further, the “rate of appearance of ^125IUdR in the medium” value with OVCAR-3 cells [6] (setting [7]) was found to be 8.5 %/hour. Also, the “rate of disappearance of ^125IUdR-DHT from the media” value in the data set with OVCAR-3 cells [6] (setting [7]) was 16 %/hour. Besides, the “emergence of “free” ^125IUdR in the growth medium” value with OVCAR-3 cells [6] (presence or absence of OVCAR-3 cells) was “requires interaction of the drugs with specific cells”.

The values are drawn from patent US7220730B2, “Cancer specific radiolabeled conjugates regulated by the cell cycle for the treatment and diagnosis of cancer” (Board of Regents of the University of Nebraska, priority 2003, dated 2007).
